Assay results reported in ChEMBL document CHEMBL1157726, “Synthesis, characterization and antiglaucoma activity of a novel proton transfer compound and a mixed-ligand Zn(II) complex” (Bioorg Med Chem, 2010).

Experiments:
Carbonic anhydrase 1 [1] = target: T1, Carbonic anhydrase 1 (Homo sapiens, UniProt P00915); assay: Inhibition of esterase-activity of CA1 from human erythrocytes by spectrophotometry
Carbonic anhydrase 2 [2] = target: T2, Carbonic anhydrase 2 (Homo sapiens, UniProt P00918); assay: Inhibition of hydratase-activity of human erythrocytes CA2 by CO2-hydration method
Carbonic anhydrase 2 [3] = target: T2, Carbonic anhydrase 2; assay: Inhibition of human erythrocytes CA2 by Lineweaver-Burke analysis
Carbonic anhydrase 1 [4] = target: T1, Carbonic anhydrase 1; assay: Inhibition of CA1 from human erythrocytes by Lineweaver-Burke analysis
Carbonic anhydrase 2 [5] = target: T2, Carbonic anhydrase 2; assay: Inhibition of esterase-activity of human erythrocytes CA2 by spectrophotometry
Carbonic anhydrase 1 [6] = target: T1, Carbonic anhydrase 1; assay: Inhibition of hydratase-activity of CA1 from human erythrocytes by CO2-hydration method

T1 sequence (P00915 whole entry): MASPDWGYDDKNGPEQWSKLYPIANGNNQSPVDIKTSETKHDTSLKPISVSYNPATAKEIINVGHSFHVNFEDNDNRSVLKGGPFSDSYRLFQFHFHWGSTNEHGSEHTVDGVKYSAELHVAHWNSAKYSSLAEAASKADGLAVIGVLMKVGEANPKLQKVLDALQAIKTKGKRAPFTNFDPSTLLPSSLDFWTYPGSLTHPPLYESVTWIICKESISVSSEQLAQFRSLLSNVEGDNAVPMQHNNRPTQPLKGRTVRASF

IC50 (Carbonic anhydrase 1 [1]; read-out: IC50)	IC50 (Carbonic anhydrase 2 [2]; read-out: IC50)	IC50 (Carbonic anhydrase 2 [3]; read-out: IC50)	IC50 (Carbonic anhydrase 1 [4]; read-out: IC50)	IC50 (Carbonic anhydrase 2 [5]; read-out: IC50)	IC50 (Carbonic anhydrase 1 [6]; read-out: IC50)	IC50 (Carbonic anhydrase 1 [1])	IC50 (Carbonic anhydrase 2 [2])	IC50 (Carbonic anhydrase 2 [3])	IC50 (Carbonic anhydrase 1 [4])	IC50 (Carbonic anhydrase 2 [5])	IC50 (Carbonic anhydrase 1 [6])	Structure (SMILES)
320 nM	300 nM	220 nM	250 nM	290 nM	260 nM							NCc1ccccn1.NS(=O)(=O)c1cc(C(=O)O)c(Cl)cc1Cl
						Not Active	Not Active	Not Active	Not Active	Not Active	Not Active	NCc1ccccn1
3200 nM	380 nM	22000 nM	7700 nM	18000 nM	430 nM							NS(=O)(=O)c1cc(C(=O)O)c(Cl)cc1Cl
